For three molecules, EC50 results are on record in ChEMBL document CHEMBL4033764, “Seeking (and Finding) Biased Ligands of the Kappa Opioid Receptor” (ACS Med Chem Lett, 2017).

For this assay, the target named is Kappa-type opioid receptor (Homo sapiens, UniProt P41145). The assay can be described thus: Agonist activity at human kappa opioid receptor expressed in CHO cells assessed as beta-arrestin2 recruitment by enzyme fragment complementation method. Type of assay: cell-based. In general terms: Arrestin recruitment assays detect the binding of arrestin to an activated receptor.
Kappa-type opioid receptor, sequence (P41145 whole entry, the tested form may be a part): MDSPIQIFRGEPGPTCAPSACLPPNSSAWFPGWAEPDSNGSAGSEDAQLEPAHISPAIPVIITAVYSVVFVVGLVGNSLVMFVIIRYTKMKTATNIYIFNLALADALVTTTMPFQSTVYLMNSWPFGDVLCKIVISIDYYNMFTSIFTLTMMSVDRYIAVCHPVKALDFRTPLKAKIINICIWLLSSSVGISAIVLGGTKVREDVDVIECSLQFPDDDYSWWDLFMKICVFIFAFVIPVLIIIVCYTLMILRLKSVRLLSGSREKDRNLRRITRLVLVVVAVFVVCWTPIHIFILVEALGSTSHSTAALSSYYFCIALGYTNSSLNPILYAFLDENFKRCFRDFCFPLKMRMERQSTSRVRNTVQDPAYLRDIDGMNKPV
In the case of `CN(CCc1ccc(Cl)c(Cl)c1)[C@@H]1CCCC[C@H]1N1CCCC1`, the EC50 – broadly, the concentration giving half of the maximal effect – came to 0.0566 µM.
Next, `O=C(Nc1ccc(Cl)c(C(F)(F)F)c1)[C@H]1CC=C[C@H]2CCN(Cc3ccccc3)C(=O)[C@@H]12`: above 10 µM; `Cc1cc(CSc2nnc(-c3ccccn3)n2Cc2ccco2)ccc1C(F)(F)F`: 4.13 µM.
